Test results: ChEMBL document CHEMBL1909046, “DrugMatrix in vitro pharmacology data”

Key:
[1] = biological target: T1, Neuropeptide Y receptor type 1 (Homo sapiens, UniProt P25929); type: cell membranes, Membrane; conditions: sk-n-mc; further: in other assays of this panel Not Active means under 50% inhibition at 10 µM
T1 sequence (P25929 whole entry): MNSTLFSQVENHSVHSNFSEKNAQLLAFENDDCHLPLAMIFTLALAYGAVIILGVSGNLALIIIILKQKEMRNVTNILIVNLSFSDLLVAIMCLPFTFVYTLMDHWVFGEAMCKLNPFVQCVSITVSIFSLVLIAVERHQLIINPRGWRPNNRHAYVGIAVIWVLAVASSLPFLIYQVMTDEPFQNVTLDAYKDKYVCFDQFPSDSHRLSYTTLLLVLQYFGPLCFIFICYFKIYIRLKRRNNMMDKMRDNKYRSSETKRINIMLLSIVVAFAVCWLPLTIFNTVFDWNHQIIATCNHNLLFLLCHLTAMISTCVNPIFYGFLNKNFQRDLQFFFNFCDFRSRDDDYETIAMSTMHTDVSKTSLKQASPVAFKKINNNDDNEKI

Mu-type opioid receptor = Mu-type opioid receptor (Homo sapiens, UniProt P35372); test: DRUGMATRIX: Opiate mu (OP3, MOP) radioligand binding (ligand: [3H] Diprenorphine); type: cell membranes, CHO-K1, Membrane; conditions: cho-k1; Not Active = under 50% inhibition at 10 µM
Mu-type opioid receptor, sequence (P35372 whole entry): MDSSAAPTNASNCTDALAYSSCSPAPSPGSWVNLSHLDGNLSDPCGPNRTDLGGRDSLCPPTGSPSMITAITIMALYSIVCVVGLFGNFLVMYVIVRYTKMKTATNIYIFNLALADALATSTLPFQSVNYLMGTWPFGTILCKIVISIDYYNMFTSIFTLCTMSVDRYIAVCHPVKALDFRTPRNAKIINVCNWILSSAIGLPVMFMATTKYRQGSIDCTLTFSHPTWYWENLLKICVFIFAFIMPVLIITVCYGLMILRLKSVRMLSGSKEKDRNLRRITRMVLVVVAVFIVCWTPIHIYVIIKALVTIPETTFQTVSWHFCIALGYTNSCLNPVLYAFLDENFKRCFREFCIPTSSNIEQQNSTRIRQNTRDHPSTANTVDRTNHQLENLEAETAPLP

[2] = biological target: cGMP-specific 3',5'-cyclic phosphodiesterase (Homo sapiens, UniProt O76074); test: DRUGMATRIX: Phosphodiesterase PDE5 enzyme inhibition (substrate: [3H]cGMP + cGMP); type: tissue-based, Platelet; conditions: platelet; Not Active = under 50% inhibition at 10 µM
Neutrophil elastase = biological target: T2, Neutrophil elastase (Homo sapiens, UniProt P08246); type: tissue-based;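 further: inhibition of neutrophil elastase enzyme activity, measured with a p-nitroanilide-linked peptide substrate; in other assays of this panel Not Active means under 50% inhibition at 10 µM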
T2 sequence (P08246 whole entry): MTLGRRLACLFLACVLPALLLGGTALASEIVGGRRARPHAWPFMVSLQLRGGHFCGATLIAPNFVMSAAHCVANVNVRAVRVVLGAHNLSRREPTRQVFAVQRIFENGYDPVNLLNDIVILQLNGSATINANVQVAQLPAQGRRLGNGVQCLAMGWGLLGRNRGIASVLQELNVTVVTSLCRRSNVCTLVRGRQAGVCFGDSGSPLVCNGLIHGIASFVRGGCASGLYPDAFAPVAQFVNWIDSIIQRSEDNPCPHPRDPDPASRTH

[3] = DRUGMATRIX: GABAA, Flunitrazepam, Central radioligand binding (ligand: [3H] Flunitrazepam); type: cell membranes, Rattus norvegicus, Wistar, Brain, Membrane; conditions: Not Active = under 50% inhibition at 10 µM
[4] = biological target: Kappa-type opioid receptor (Homo sapiens, UniProt P41145); test: DRUGMATRIX: Opiate kappa (OP2, KOP) radioligand binding (ligand: [3H] Diprenorphine); type: cell membranes, HEK293, Membrane; conditions: hek293; Not Active = under 50% inhibition at 10 µM
Kappa-type opioid receptor, sequence (P41145 whole entry): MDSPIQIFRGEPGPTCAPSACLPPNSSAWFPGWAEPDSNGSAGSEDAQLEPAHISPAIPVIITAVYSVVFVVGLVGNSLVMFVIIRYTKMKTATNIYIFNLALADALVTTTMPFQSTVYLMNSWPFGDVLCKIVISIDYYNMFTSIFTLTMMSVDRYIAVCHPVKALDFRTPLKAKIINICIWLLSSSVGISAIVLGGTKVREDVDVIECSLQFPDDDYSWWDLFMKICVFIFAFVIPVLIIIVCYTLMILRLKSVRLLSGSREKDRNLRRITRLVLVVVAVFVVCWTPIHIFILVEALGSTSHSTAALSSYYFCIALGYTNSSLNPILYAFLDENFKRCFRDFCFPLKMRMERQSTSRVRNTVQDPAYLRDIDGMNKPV

[5] = biological target: Mitogen-activated protein kinase 3 (Homo sapiens, UniProt P27361); test: DRUGMATRIX: Protein Serine/Threonine Kinase, ERK1 enzyme inhibition (substrate: Myelin Basic Protein); parameters: species or system Escherichia coli; conditions: Not Active = under 50% inhibition at 10 µM
Mitogen-activated protein kinase 3, sequence (P27361 whole entry): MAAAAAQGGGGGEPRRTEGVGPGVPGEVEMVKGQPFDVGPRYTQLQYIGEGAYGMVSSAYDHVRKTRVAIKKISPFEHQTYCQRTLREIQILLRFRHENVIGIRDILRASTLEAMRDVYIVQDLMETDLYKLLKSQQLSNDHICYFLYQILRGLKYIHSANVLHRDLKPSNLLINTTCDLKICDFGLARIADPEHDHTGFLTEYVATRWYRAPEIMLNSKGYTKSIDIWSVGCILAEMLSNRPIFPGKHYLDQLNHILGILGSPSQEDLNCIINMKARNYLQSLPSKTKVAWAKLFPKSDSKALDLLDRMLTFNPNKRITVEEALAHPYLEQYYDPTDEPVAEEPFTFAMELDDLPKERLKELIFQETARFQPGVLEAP

COc1cc(/C=C/C(=O)O)ccc1O [FERULATE]
Not Active: IC50 [1] | IC50 (Mu-type opioid receptor) | IC50 [2] | IC50 (Neutrophil elastase) | IC50 [3] | Ki [3] | IC50 [4] | IC50 [5]

CC(C)(C#N)c1cc(Cn2cncn2)cc(C(C)(C)C#N)c1 [ANASTROZOLE]
Not Active: IC50 [1] | IC50 (Mu-type opioid receptor) | IC50 [2] | IC50 (Neutrophil elastase) | IC50 [3] | Ki [3] | IC50 [4] | IC50 [5]

COc1ccc(Cl)cc1C(=O)NCCc1ccc(S(=O)(=O)NC(=O)NC2CCCCC2)cc1 [GLYBURIDE]
Not Active: IC50 [1] | IC50 (Mu-type opioid receptor) | IC50 [2] | IC50 (Neutrophil elastase) | IC50 [3] | Ki [3] | IC50 [4] | IC50 [5]

CC(C)NCC(O)COc1ccc(CC(N)=O)cc1 (configuration not stated) [ATENOLOL]
Not Active: IC50 [1] | IC50 (Mu-type opioid receptor) | IC50 [2] | IC50 (Neutrophil elastase) | IC50 [3] | Ki [3] | IC50 [4] | IC50 [5]

O=C(O)COC(=O)Cc1ccccc1Nc1c(Cl)cccc1Cl [ACECLOFENAC]
Not Active: IC50 [1] | IC50 (Mu-type opioid receptor) | IC50 [2] | IC50 (Neutrophil elastase) | IC50 [3] | Ki [3] | IC50 [4] | IC50 [5]

C[C@@H]1[C@H](O)[C@@H](C)/C=C/C=C/C=C/C=C/C=C/C=C/C=C/[C@H](O[C@@H]2O[C@H](C)[C@@H](O)[C@H](N)[C@@H]2O)C[C@@H]2O[C@](O)(C[C@@H](O)C[C@@H](O)[C@H](O)CC[C@@H](O)C[C@@H](O)CC(=O)O[C@H]1C)C[C@H](O)[C@H]2C(=O)O [AMPHOTERICIN B]
Not Active: IC50 [1] | IC50 (Mu-type opioid receptor) | IC50 [2] | IC50 (Neutrophil elastase) | IC50 [3] | Ki [3] | IC50 [4]

C=CCO [ALLYL ALCOHOL]
Not Active: IC50 [1] | IC50 [2] | IC50 (Neutrophil elastase) | IC50 [3] | Ki [3] | IC50 [5]

POVIDONE
Not Active: IC50 [1] | Ki [1] | IC50 [2] | Ki [2] | IC50 (Neutrophil elastase) | Ki (Neutrophil elastase) | IC50 [3] | Ki [3] | IC50 [5] | Ki [5]

C=C(Cl)Cl [1,1-DICHLOROETHENE]
Not Active: IC50 [1] | IC50 [2] | IC50 (Neutrophil elastase) | IC50 [3] | Ki [3] | IC50 [5]

C=CCN1CC[C@]23c4c5ccc(O)c4O[C@H]2/C(=N/N=C2\CC[C@@]4(O)[C@H]6Cc7ccc(O)c8c7[C@@]4(CCN6CC=C)[C@H]2O8)CC[C@@]3(O)[C@H]1C5 [NALOXONAZINE]
Not Active: IC50 [1] | IC50 [2] | IC50 (Neutrophil elastase) | IC50 [3] | Ki [3] | IC50 [5]

CHROMIC CHLORIDE
Not Active: IC50 [1] | Ki [1] | IC50 [2] | Ki [2] | IC50 (Neutrophil elastase) | Ki (Neutrophil elastase) | IC50 [3] | Ki [3] | IC50 [5] | Ki [5]

CCN1C[C@]2(COC)[C@H](O)C[C@H](OC)[C@@]34[C@@H]5C[C@@]6(O)[C@H](OC(=O)c7ccccc7)[C@@H]5[C@@](OC(C)=O)([C@@H]([C@H](OC)[C@H]23)[C@@H]14)[C@@H](O)[C@@H]6OC [ACONITINE]
Not Active: IC50 [1] | IC50 [2] | IC50 (Neutrophil elastase) | IC50 [3] | Ki [3] | IC50 [5]

O=C(O)CNCP(=O)(O)O [GLYPHOSATE]
Not Active: IC50 [1] | IC50 [2] | IC50 (Neutrophil elastase) | IC50 [3] | Ki [3] | IC50 [5]

COc1cc([C@@H]2c3cc4c(cc3[C@H](O)[C@H]3COC(=O)[C@H]23)OCO4)cc(OC)c1OC [PODOFILOX]
Not Active: IC50 [1] | IC50 [2] | IC50 (Neutrophil elastase) | IC50 [3] | Ki [3] | IC50 [5]

CARBOXYMETHYLCELLULOSE
Not Active: IC50 [1] | Ki [1] | IC50 [2] | Ki [2] | IC50 (Neutrophil elastase) | Ki (Neutrophil elastase) | IC50 [3] | Ki [3] | IC50 [5] | Ki [5]

ClC1=C(Cl)[C@]2(Cl)[C@@H]3[C@@H]4C[C@@H]([C@H]5O[C@@H]45)[C@@H]3[C@@]1(Cl)C2(Cl)Cl [DIELDRIN]
Not Active: IC50 [1] | IC50 [2] | IC50 (Neutrophil elastase) | IC50 [3] | Ki [3] | IC50 [5]

CN(Cc1cc(Br)cc(Br)c1N)C1CCCCC1 [BROMHEXINE]
Not Active: IC50 [1] | IC50 (Mu-type opioid receptor) | IC50 [2] | IC50 (Neutrophil elastase) | IC50 [3] | Ki [3] | IC50 [4]

Nc1ccc(Cc2ccc(N)cc2)cc1
Not Active: IC50 [1] | IC50 [2] | IC50 (Neutrophil elastase) | IC50 [3] | Ki [3] | IC50 [5]

COPPER(II) OXIDE
Not Active: IC50 [1] | Ki [1] | IC50 [2] | Ki [2] | IC50 (Neutrophil elastase) | Ki (Neutrophil elastase) | IC50 [3] | Ki [3] | IC50 [5] | Ki [5]
